Legend:
[1] = tested on: adventitious roots of Bupleurum falcatum L.; assay: Rooting test using Bupleurum falcatum L. (1); assay type: cell-based; details: for Weight of Freeze-dried Roots: day 24, 0.2 g roots planted
Method: In order to evaluate rooting activity, adventitious roots of Bupleurum falcatum L. were employed. The adventitious roots were obtained by growing the roots of aseptic seedlings by use of IBA. The developed roots were cultured at 23° C. in a B5 liquid medium containing 5 mg/L IBA (for 3 weeks) and in the corresponding B5 liquid medium with no IBA (for 6 weeks) in an alternate manner. The inoculation amount of the roots was 5 g/L, the incubation temperature was 23° C., and subculture was performed in the dark under shaking conditions of 100 rpm. In the rooting test, adventitious roots cultured in IBA-free medium were employed. B5 medium (30-mL) was placed in a 100 mL flask, followed by planting of the roots of Bupleurum falcatum L. (0.2 g) under aseptic conditions. The present lactone derivative, prepared in 10,000 ppm, was added to the flask so as to attain the concentration of 4 ppm or 8 ppm. A sample containing a 4 ppm (final concentration) IBA solution and a sample containing a 8 ppm (final concentration) IBA solution were employed as positive controls, and a corresponding IBA-free sample was employed as a control. Respective samples were cultured under shaking at 100 rpm at 23° C. in the dark, and on day 24, the extent of rooting was checked. The roots were freeze-dried and the weight thereof was measured.

[2] = tested on: adventitious roots of Bupleurum falcatum L.; assay: Rooting test using Bupleurum falcatum L. (2); assay type: cell-based; details: for Number of Lateral Roots: per unit length (2 cm) of planted root, average of 3 measurements
Method: In order to evaluate rooting activity, adventitious roots of Bupleurum falcatum L. were employed. The adventitious roots were obtained by growing the roots of aseptic seedlings by use of IBA. The developed roots were cultured at 23° C. in a B5 liquid medium containing 5 mg/L IBA (for 3 weeks) and in the corresponding B5 liquid medium with no IBA (for 6 weeks) in an alternate manner. The inoculation amount of the roots was 5 g/L, the incubation temperature was 23° C., and subculture was performed in the dark under shaking conditions of 100 rpm.
In the rooting test, adventitious roots cultured in IBA-free medium were employed. B5 medium (30-mL) was placed in a 100 mL flask, followed by planting of the roots of Bupleurum falcatum L. (0.2 g) under aseptic conditions. The present lactone derivative, prepared in 10,000 ppm, was added to the flask so as to attain the concentration of 4 ppm or 8 ppm. A sample containing a 4 ppm (final concentration) IBA solution and a sample containing a 8 ppm (final concentration) IBA solution were employed as positive controls, and a corresponding IBA-free sample was employed as a control. Respective samples were cultured under shaking at 100 rpm at 23° C. in the dark, and on day 24, the extent of rooting was checked. The roots were freeze-dried and the weight thereof was measured.
The general procedure of the above-described rooting test (1) was followed, except that there were employed, as positive controls, samples containing the novel auxin metabolite (Fb) disclosed in Japanese Patent Application Laid-Open (kokai) No. 10-77268, at 4 ppm and 8 ppm (both final concentration).
The number of lateral roots was determined by averaging 3 measurements of the number of the lateral roots appearing per unit length (2 cm) of the planted root.

Structure (SMILES) | Weight of Freeze-dried Roots ([1]; 4 ppm final concentration) | Weight of Freeze-dried Roots ([1]; 8 ppm final concentration) | rooting activity ([1]; 4 ppm and 8 ppm, compared with IBA as positive control) | rooting activity ([2]; 4 ppm and 8 ppm, compared with Fb as positive control) | Weight of Freeze-dried Roots ([2]; 4 ppm final concentration) | Number of Lateral Roots ([2]; 4 ppm final concentration) | Weight of Freeze-dried Roots ([2]; 8 ppm final concentration) | Number of Lateral Roots ([2]; 8 ppm final concentration)
O=C1CCC(c2cc3ccccc3o2)O1 (stereo not drawn) [Compound 1, 5-(1-Benzofuran-2-yl)dihydro-2(3H)-furanone] | 0.37 g | 0.35 g |  |  |  |  |  | 
O=C1CCC(c2csc3ccccc23)O1 (stereo not drawn) [Compound 2, 5-(1-Benzothiophen-3-yl)dihydro-2(3H)-furanone] | 0.36 g | 0.41 g | rooting activity stronger than IBA | rooting activity stronger than Fb | 0.31 g | 30.0 | 0.45 g | 43.3
O=C(O)CCCc1c[nH]c2ccccc12 [IBA, indolebutyric acid, reference compound] | 0.31 g | 0.37 g |  |  |  |  |  | 

Source: patent US20040209778A1, “Lactone derivative, and plant growth regulator and rooting agent each containing the same as active ingredient” (priority 2001, published 2004)
